According to patent EP4692059A1, “CATIONIC LIPID HAVING DISULFIDE BOND” (Tohoku University, priority 2023, dated 2024):

Key:
[1] = test system: liver; assay: In vivo gene expression, luciferase luminescence in the liver after tail vein administration (Experimental Example 7); settings: BALB/c mouse, mRNA 0.05 mg/kg
Procedure: LNP encapsulating mRNA that expresses luciferase (cationic lipid:DOPC:Chol:DMG-PEG2k = 52.5:7.5:40:1.5 (molar ratio)) was prepared by the method described in [Experimental Example 6], 1.
(§1) The prepared each mRNA-encapsulating LNP dispersion was administered from the tail vein of BALB/c mouse (male, 5-week-old). The dose of mRNA was set to 0.05 mg per 1 kg body weight of the mouse, and the dose of the mRNA-encapsulating LNP dispersion was set to 10 µL per 1 g body weight of the mouse. After 4.5 hr from the administration of the mRNA-encapsulating LNP dispersion, a PBS solution of D-luciferin potassium was administered into the abdominal cavity of the mouse. The dose of D-luciferin potassium was set to 3 mg per mouse, and the dose of the PBS solution of D-luciferin potassium was set to 200 µL per mouse. After 15 min from the administration of the PBS solution of D-luciferin potassium, the mouse was euthanized, and the liver was isolated. The luminescence in the liver was quantified using an in vivo imaging system (IVIS) with an exposure of 10 sec. The amount of luminescence in the liver was quantified by image analysis using Live Imaging software attached to IVIS. The amount of luminescence (photons/sec) was calculated from the acquired image and used as an index of gene expression activity. The cationic lipids used, the luminescence intensity in the liver, and the relative luminescence intensity (= luminescence intensity in the liver when cationic lipid of Example was used/luminescence intensity in the liver when cationic lipid of Comparative Example was used) are shown in Table 9. For example, "3.94E+09" means "3.94×10^9". […]

[2] = test system: mouse red blood cells; assay: Hemolysis activity (membrane fusion ability) at pH 7.4 and 5.5 (Experimental Example 5); assay type: cell-based, ICR mice; settings: physiological pH (7.4); final lipid concentration 100 µM; Fig. 1
Procedure: LNPs encapsulating mRNA that expresses luciferase (cationic lipid:DOPC:Chol:DMG-PEG2k=52.5:7.5:40:1.5 (molar ratio)) were prepared using the method described in [Experimental Example 2] 1. As cationic lipid, the cationic lipid of Comparative Example, compound 9, compound 14, compound 27, compound 33, or compound 42 was used.
The collected blood was immediately mixed with 1.0 µL of heparin solution (5000 U/5 mL). About 9 mL of PBS was added to the blood to make the total volume 10 mL. The mixture was then mixed by inversion and centrifuged (4°C, 400 g, 10 min). The supernatant containing plasma components was removed using a Pasteur pipette. About 9 mL of PBS was added to the blood cell components to make the total volume 10 mL, and the mixture was centrifuged again. A similar washing procedure was repeated 4 times to obtain mouse red blood cells.
2, 4, 6, 8, and 10 µL of mouse red blood cells were weighed and diluted with PBS containing 1 w/v% Triton-X100. The entire diluted solution was transferred to a clear 96-well plate, and the absorbance at 545 nm was measured using a plate reader. A calibration curve was created using these samples, and the point where the absorbance reached 1 was determined as the amount of blood cells to be used in the hemolysis assay. Empty LNP solution was weighed into an Eppendorf tube and diluted with malic acid-PBS buffer (pH 5.5, pH 7.4), followed by addition of mouse red blood cells. The final lipid concentration was 100 µM at pH 7.4 and 33.3 µM at pH 5.5, and the final volume of the solution was 250 µL. Each tube was shaken at 1900 rpm for 15 min. Each sample was centrifuged under centrifugation conditions (4°C, 400 g, 5 min), and 100 µL of the supernatant was transferred to a clear 96-well plate and the absorbance at 545 nm was measured. Untreated red blood cells were used as the negative control. […] The hemolysis activity of each sample was calculated using the following formula: Hemolysis activity (%) = 100×(absorbance of each sample - absorbance of negative control)/(absorbance of positive control - absorbance of negative control).

[3] = test system: liver; assay: In vivo gene expression, luciferase luminescence in the liver after tail vein administration (Experimental Example 4); settings: BALB/c mouse, mRNA 0.05 mg/kg
Procedure: LNP encapsulating mRNA that expresses luciferase (cationic lipid:DOPC:Chol:DMG-PEG2k = 52.5:7.5:40:1.5 (molar ratio)) was prepared by the method described in [Experimental Example 2], 1.
as §1, with “7-1 to Table 7-3. "E+0a" (a: integer) indicated in Table 7-1 to Table 7-3 means "10^a".” for “9.”

[4] = test system: HeLa cells; assay: In vitro gene expression in HeLa cells (luciferase mRNA-encapsulating LNP, cumulative luminescence in 24 hr)
Procedure: LNP encapsulating mRNA that expresses luciferase (cationic lipid:DOPC:Chol:DMG-PEG2k = 50:10:40:1 (molar ratio)) was prepared by the method described in [Experimental Example 2], 1.
HeLa cells, which are human cervical cancer cells, were seeded in a 3.5 cm dish at 5.0×10^4 cells/2 mL/Dish 24 hours before transfection. After 24 hr, the medium was changed to a culture medium (D-MEM) containing 0.1 mM D-luciferin. The prepared mRNA-encapsulating LNP was diluted with PBS to an mRNA concentration of about 1 µg/mL. The diluted mRNA-encapsulating LNP solution (about 200 µL, mRNA: 0.2 µg) was added to a 3.5 cm dish, and set in an incubator luminometer KronosDio. The luminescence intensity of luciferase was measured for 2 min every one hour. The cumulative luciferase luminescence intensity in 24 hr was calculated from the obtained time change of expression. […] In Comparative Example, the cationic lipid described in Table 2 was used.

[5] = liver luminescence relative to cationic lipid of Comparative Example

## CCCCCCCC/C=C\CCCCCCCC(=O)Oc1ccc(CC(=O)OCCC2CCN(CCSSCCN3CCC(CCOC(=O)Cc4ccc(OC(=O)CCCCCCC/C=C\CCCCCCCC)cc4)CC3)CC2)cc1 [Comparative Example, reference compound]
[1]; tail vein, 4.5 hr after administration, LNP cationic lipid:DOPC:Chol:DMG-PEG2k = 52.5:7.5:40:1.5, prepared as in Experimental Example 6
  amount of luminescence (photons/sec) in liver: 2.05E+09 photons/sec
[1]; [5]
  relative amount of luminescence: 1.00
[2]
  hemolysis activity: did not exhibit hemolysis activity
[3]; tail vein, 4.5 hr after administration, LNP cationic lipid:DOPC:Chol:DMG-PEG2k = 52.5:7.5:40:1.5, prepared as in Experimental Example 2
  amount of luminescence (photons/sec) in liver: 1.52E+09 photons/sec
[3]; [5]
  relative amount of luminescence: 1.00
[4]; LNP cationic lipid:DOPC:Chol:DMG-PEG2k = 50:10:40:1, mRNA 0.2 µg per dish, E+0a means 10^a
  cumulative luciferase luminescence intensity (RLU) in 24 hr: 1.85E+07 RLU
[4]; cumulative intensity in 24 hr relative to cationic lipid of Comparative Example
  relative luminescence intensity: 1.00
